Experimental data from paper PMC4018225 (Biopharmaceutics & drug disposition, 2013).
Where two headings read alike, the source gives them in different places. Marks after values point to notes of the source that are not given here.

Legend:
[1] = nonHIV tx, cited from earlier work
[2] = type: in vivo, human; conditions: for AUC (weight and dose normalized) / TAC V/F: median [IQR]; for CL/F: human, whole blood, oral
[3] = Reference pharmacokinetics of CsA and TAC in nonHIV transplant patients; type: in vivo, human; conditions: nonHIV tx; average for both PI time periods
[4] = HIV-1 infected volunteers; concomitant use of EFV or NVP; cited from earlier work
[5] = HIV infected subjects compared to healthy volunteers; cited from earlier work
[6] = co-medication EFV, wk 28, 52, 104
[7] = co-medication NVP, wk 28, 52, 104

C=CC[C@@H]1/C=C(\C)C[C@H](C)C[C@H](OC)[C@H]2O[C@@](O)(C(=O)C(=O)N3CCCC[C@H]3C(=O)O[C@H](/C(C)=C/[C@@H]3CC[C@@H](O)[C@H](OC)C3)[C@H](C)[C@@H](O)CC1=O)[C@H](C)C[C@@H]2OC [TAC, tacrolimus]
TAC CL/F [1]: 350 mL/h/kg | TAC CL/V [1]: 0.058 h⁻¹ | TAC V/F [1]: 6 L/kg | AUC (weight and dose normalized) ([1]; wks 2–12): 2000 to 5000 ng·h/mL/mg/kg | AUC (weight and dose normalized) ([1]; wks 28–104): 2000 to 5000 ng·h/mL/mg/kg | AUC (weight and dose normalized) ([2]; +EFV, wks 2–12): 2170 [936–3261] ng*hr/mL/mg/kg | AUC (weight and dose normalized) ([2]; +EFV, wks 28–104): 1911 [1423–3071] ng*hr/mL/mg/kg | AUC (weight and dose normalized) ([2]; +NVP, wks 2–12): 3644 [3115–5157] ng*hr/mL/mg/kg | AUC (weight and dose normalized) ([2]; +NVP, wks 28–104): 4220 [2703–6229] ng*hr/mL/mg/kg | AUC (weight and dose normalized) ([2]; +PI, wks 2–12): 24996 [18205–41601] ng*hr/mL/mg/kg | AUC (weight and dose normalized) ([2]; +PI, wks 28–104): 34653 [17208–42250] ng*hr/mL/mg/kg | TAC CL/F Ratio to PI [2, 6]: 18.1 | TAC CL/V [2, 6]: 0.068 h⁻¹ | TAC CL/V Ratio to PI [2, 6]: 2.33 | TAC V/F Ratio to PI [2, 6]: 7.78 | TAC V/F [2, 6]: 7.70 [6.22–10.70] L/kg | TAC CL/F Ratio to PI ([2]; co-medication EFV, wks 2–12): 11.5 | TAC CL/V ([2]; co-medication EFV, wks 2–12): 0.074 h⁻¹ | TAC CL/V Ratio to PI ([2]; co-medication EFV, wks 2–12): 1.72 | TAC V/F Ratio to PI ([2]; co-medication EFV, wks 2–12): 6.66 | TAC V/F ([2]; co-medication EFV, wks 2–12): 6.26 [5.42–10.91] L/kg | TAC CL/F Ratio to PI [2, 7]: 8.72 | TAC CL/V [2, 7]: 0.031 h⁻¹ | TAC CL/V Ratio to PI [2, 7]: 1.07 | TAC V/F Ratio to PI [2, 7]: 8.17 | TAC V/F [2, 7]: 8.09 [3.46–15.14] L/kg | TAC CL/F Ratio to PI ([2]; co-medication NVP, wks 2–12): 6.85 | TAC CL/V ([2]; co-medication NVP, wks 2–12): 0.056 h⁻¹ | TAC CL/V Ratio to PI ([2]; co-medication NVP, wks 2–12): 1.31 | TAC V/F Ratio to PI ([2]; co-medication NVP, wks 2–12): 5.20 | TAC V/F ([2]; co-medication NVP, wks 2–12): 4.89 [2.74–6.16] L/kg | TAC CL/F Ratio to PI ([2]; co-medication PI, wk 28, 52): 1 | TAC CL/V ([2]; co-medication PI, wk 28, 52): 0.029 h⁻¹ | TAC CL/V Ratio to PI ([2]; co-medication PI, wk 28, 52): 1 | TAC V/F Ratio to PI ([2]; co-medication PI, wk 28, 52): 1 | TAC V/F ([2]; co-medication PI, wk 28, 52): 0.99 [0.31–1.19] L/kg | TAC CL/F Ratio to PI ([2]; co-medication PI, wks 2–12): 1 | TAC CL/V ([2]; co-medication PI, wks 2–12): 0.043 h⁻¹ | TAC CL/V Ratio to PI ([2]; co-medication PI, wks 2–12): 1 | TAC V/F Ratio to PI ([2]; co-medication PI, wks 2–12): 1 | TAC V/F ([2]; co-medication PI, wks 2–12): 0.94 [0.64–1.29] L/kg | CL/F ([2]; 0.003 mg/kg): 0.483 mL/min/kg | CL/F ([2]; 0.007 mg/kg): 0.667 mL/min/kg | CL/F ([2]; 0.046 mg/kg): 8.77 mL/min/kg | CL/F ([2]; 0.058 mg/kg): 7.68 mL/min/kg | TAC apparent volume of distribution ratio, PI compared to EFV ([2]; in vivo): 0.15 | TAC apparent volume of distribution ratio, PI compared to NVP ([2]; in vivo): 0.19 | increase in drug exposure on concomitant administration with PIs ([2]; in vivo): 2–50 fold | increase in exposure (AUC/dose) in the presence of PIs relative to NNRTIs ([2]; in vivo): more than 10 fold | TAC CL/F ratio, PI compared to EFV ([2]; weeks 2–12): 0.09 | TAC CL/F ratio, PI compared to NVP ([2]; weeks 2–12): 0.15 | TAC CL/F Ratio to PI [3]: (10.1) ^* | TAC CL/V Ratio to PI [3]: (1.6) ^* | TAC V/F Ratio to PI [3]: (6.2) ^*

Cc1cccc(C)c1OCC(=O)N[C@@H](Cc1ccccc1)[C@@H](O)C[C@H](Cc1ccccc1)NC(=O)[C@H](C(C)C)N1CCCNC1=O [lopinavir]
increase in apparent oral clearance [4]: 39%

Cc1ncc2n1-c1ccc(Cl)cc1C(c1ccccc1F)=NC2 [midazolam]
decrease in clearance [5]: ~ 50%
